Patent US9365572B2, “PI3K and/or mTOR inhibitor” (XUANZHU PHARMA CO., LTD., priority 2012, dated 2016)

Legend:
Test in all cases: Kinase selectivity, Mobility shift assay
Assay type in all cases: biochemical
AKT1 = AKT1 (Homo sapiens (Human), UniProt P31749)
Method: (§1) Object: In this assay, the inhibitory activity of the test substance on the kinases listed in Table 3 was determined, and therefore the selectivity of the present compound was determined.
(§2) Except for the BRAF V600E kinase in Table 3, the Mobility shift assay was used for other kinases.
(§3) 1. Preparation of Agents:
(§4) • 1.1 1-fold kinase buffer without MnCl2: 50 mM HEPES, pH 7.5, 0.0015% Brij-35, 10 mM MgCl2, 2 mM DTT. • 1.2 1-fold kinase buffer with MnCl2: 50 mM HEPES, pH 7.5, 0.0015% Brij-35, 10 mM MgCl2, 10 mM MnCl2, 2 mM DTT. • 1.3 Termination solution: 100 mM HEPES, pH 7.5, 0.0015% Brij-35, 0.2% Coating Reagent#3, 50 mM EDTA. • 1.4 2.5-fold kinase solution: The kinase was added to the 1-fold kinase buffer to form a 2.5-fold kinase solution. • 1.5 2.5-fold substrate solution: FAM fluorescence-labelled polypeptide and ATP were added to the 1-fold kinase buffer to form a 2.5-fold substrate solution. 2. Preparation of 5-fold compound
(§5) The final test concentration of the compound was 10 μM at maximum. Firstly, a 50-fold concentration (i.e. 500 μM) was prepared with 100% DMSO. The compound was diluted with 100% DMSO by 5 folds at 5 concentrations (successively 500 μM, 100 μM, 20 μM, 4 μM, and 0.8 μM). After diluting with 1-fold kinase buffer by 10 folds, 5 μl of the samples were transferred to a 384-well reaction plate. Two negative control wells and two positive control wells were set at each line respectively. Replication was made in a 96-well plate in five concentrations of 5-fold compound. 10% DMSO was added to the positive control well, and 5 μl of EDTA (250 mM) was added to the negative control well.
(§6) • 3.1 To the 384-well reaction plate was added 5-fold compound dissolved in 10% DMSO at 5 μl/well. • 3.2 To the 384-well reaction plate was added 2.5-fold kinase solution at 10 μl/well. The plate was incubated at room temperature for 10 mins. • 3.3 To the 384-well reaction plate was added 2.5-fold substrate solution at 10 μl/well. The plate was incubated at 28° C. for a certain period. • 3.4 25 μl termination solution was added to terminate the reaction. The conversion was read from Caliper. 4. Inhibition rate calculation Inhibition rate (%)=(maximum−sample value)/(maximum−minimum)×100 • wherein: • maximum refers to the conversion at the DMSO control well, • minimum refers to the conversion at the control well without kinase. Lanthascreen Analysis Method for the BRAF V600E Kinase 1. Preparation of Agents: • 1.1 2-fold kinase solution: using 1-fold kinase buffer to prepare 2-fold kinase solution, with a final concentration of 0.35 nM of BRAFV600E; • 1.2 4-fold substrate solution: using 1-fold kinase buffer to prepare 4-fold substrate solution, with a final substrate solution concentration of 0.2 μM of Fluorescein-MAP2K1 and 1.5 μM of ATP. 2. Preparation of 4-fold compound • The final test concentration of the compound was 10 μM at maximum. Firstly, a 100-fold concentration (i.e. 1000 μM) was prepared with 100% DMSO. The compound was diluted with 100% DMSO by 5 folds at 5 concentrations. The compound series was identical to that in the Mobility Shift Assay. After diluting with 1-fold kinase buffer by 25 folds, the resulting samples were shaked and mixed evenly on a plate-shaker for 10 mins. 3. Procedure • 3.1 To the 384-well reaction plate was added 4-fold compound dissolved in 10% DMSO at 2.5 µl/well; • 3.2 To the 384-well reaction plate was added 2-fold kinase solution at 5 μl/well, and to the negative control wells were added 1-fold kinase buffer. The samples were shaked, mixed evenly, and kept standing at room temperature. • 3.3 To the 384-well reaction plate was added 4-fold substrate solution at 2.5 μl/well. The plate was reacted, shaked, mixed evenly and incubated at room temperature for one hour; • 3.4 Reaction result detection: 2-fold detection solution was prepared, with a final concentration of 2 nM of Antibody and 10 mM of EDTA. 10 μl of the detection solution was transferred to the 384-well plate to terminate the reaction. […]

CDK2 = CDK2 (Homo sapiens (Human), UniProt P24941)
Method: as §1, §2, §3, §4, §5, §6

CHK1 = CHK1 (Homo sapiens (Human), UniProt O14757)
Method: as §1, §2, §3, §4, §5, §6

CK1d = CK1d (Homo sapiens (Human), UniProt P48730)
Method: as §1, §2, §3, §4, §5, §6

CKIT = CKIT (Homo sapiens (Human), UniProt P10721)
Method: as §1, §2, §3, §4, §5, §6

CMET = CMET (Homo sapiens (Human), UniProt P08581)
Method: as §1, §2, §3, §4, §5, §6

CSK = CSK (Homo sapiens (Human), UniProt P41240)
Method: as §1, §2, §3, §4, §5, §6

DYRK1b = DYRK1b (Homo sapiens (Human), UniProt Q9Y463)
Method: as §1, §2, §3, §4, §5, §6

FGFR1 = FGFR1 (Homo sapiens (Human), UniProt P11362)
Method: as §1, §2, §3, §4, §5, §6

JAK3 = JAK3 (Homo sapiens (Human), UniProt P52333)
Method: as §1, §2, §3, §4, §5, §6

JNK2 = JNK2 (Homo sapiens (Human), UniProt P45984)
Method: as §1, §2, §3, §4, §5, §6

KDR = KDR (Homo sapiens (Human), UniProt P35968)
Method: as §1, §2, §3, §4, §5, §6

LYNa = LYNa (Homo sapiens (Human), UniProt P07948)
Method: as §1, §2, §3, §4, §5, §6

MARK1 = MARK1 (Homo sapiens (Human), UniProt Q9P0L2)
Method: as §1, §2, §3, §4, §5, §6

P70s6k = P70s6k (Homo sapiens (Human), UniProt P23443)
Method: as §1, §2, §3, §4, §5, §6

PKCa = PKCa (Homo sapiens (Human), UniProt P17252)
Method: as §1, §2, §3, §4, §5, §6

PKD1 = PKD1 (Homo sapiens (Human), UniProt Q15139)
Method: as §1, §2, §3, §4, §5, §6

ROCK2 = ROCK2 (Homo sapiens (Human), UniProt O75116)
Method: as §1, §2, §3, §4, §5, §6

SYK = SYK (Homo sapiens (Human), UniProt P43405)
Method: as §1, §2, §3, §4, §5, §6

Sequence of CKIT (P10721 26-976): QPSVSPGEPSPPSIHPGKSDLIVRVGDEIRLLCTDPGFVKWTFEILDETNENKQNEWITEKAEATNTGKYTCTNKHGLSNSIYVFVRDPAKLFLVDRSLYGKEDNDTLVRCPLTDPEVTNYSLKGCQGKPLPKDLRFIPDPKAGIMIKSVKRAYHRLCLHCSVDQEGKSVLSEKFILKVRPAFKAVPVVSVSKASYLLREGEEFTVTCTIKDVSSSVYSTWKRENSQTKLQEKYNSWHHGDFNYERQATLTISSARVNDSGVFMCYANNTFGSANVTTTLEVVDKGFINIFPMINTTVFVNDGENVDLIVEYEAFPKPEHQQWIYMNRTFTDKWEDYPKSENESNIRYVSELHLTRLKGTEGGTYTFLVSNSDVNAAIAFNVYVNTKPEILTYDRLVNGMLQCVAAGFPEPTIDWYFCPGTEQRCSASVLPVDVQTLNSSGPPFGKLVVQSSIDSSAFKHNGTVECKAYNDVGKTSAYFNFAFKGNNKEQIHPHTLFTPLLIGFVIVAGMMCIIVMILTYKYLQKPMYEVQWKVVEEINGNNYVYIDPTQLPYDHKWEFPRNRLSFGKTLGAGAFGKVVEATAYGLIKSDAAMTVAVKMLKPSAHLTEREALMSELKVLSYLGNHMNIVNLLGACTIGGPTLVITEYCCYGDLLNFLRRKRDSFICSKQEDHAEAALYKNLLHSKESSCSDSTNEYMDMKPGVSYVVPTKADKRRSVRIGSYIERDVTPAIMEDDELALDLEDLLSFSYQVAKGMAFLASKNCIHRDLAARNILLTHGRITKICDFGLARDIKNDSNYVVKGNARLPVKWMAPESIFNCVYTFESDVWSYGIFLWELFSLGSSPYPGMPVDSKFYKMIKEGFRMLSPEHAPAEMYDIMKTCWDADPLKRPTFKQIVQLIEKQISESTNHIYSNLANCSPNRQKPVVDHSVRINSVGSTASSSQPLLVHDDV
Sequence of JNK2 (P45984 whole entry, species assumed): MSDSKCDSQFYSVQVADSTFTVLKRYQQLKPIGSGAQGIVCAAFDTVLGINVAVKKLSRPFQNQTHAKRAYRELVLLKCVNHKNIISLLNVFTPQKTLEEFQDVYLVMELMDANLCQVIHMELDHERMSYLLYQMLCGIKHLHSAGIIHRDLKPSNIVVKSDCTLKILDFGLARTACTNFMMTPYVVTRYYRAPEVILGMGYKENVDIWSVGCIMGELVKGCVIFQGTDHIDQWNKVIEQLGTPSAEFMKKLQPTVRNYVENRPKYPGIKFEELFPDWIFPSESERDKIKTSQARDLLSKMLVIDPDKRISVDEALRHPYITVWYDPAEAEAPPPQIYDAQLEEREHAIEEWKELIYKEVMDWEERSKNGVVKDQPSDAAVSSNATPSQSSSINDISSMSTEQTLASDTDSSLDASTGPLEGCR
Sequence of CMET (P08581 25-1390): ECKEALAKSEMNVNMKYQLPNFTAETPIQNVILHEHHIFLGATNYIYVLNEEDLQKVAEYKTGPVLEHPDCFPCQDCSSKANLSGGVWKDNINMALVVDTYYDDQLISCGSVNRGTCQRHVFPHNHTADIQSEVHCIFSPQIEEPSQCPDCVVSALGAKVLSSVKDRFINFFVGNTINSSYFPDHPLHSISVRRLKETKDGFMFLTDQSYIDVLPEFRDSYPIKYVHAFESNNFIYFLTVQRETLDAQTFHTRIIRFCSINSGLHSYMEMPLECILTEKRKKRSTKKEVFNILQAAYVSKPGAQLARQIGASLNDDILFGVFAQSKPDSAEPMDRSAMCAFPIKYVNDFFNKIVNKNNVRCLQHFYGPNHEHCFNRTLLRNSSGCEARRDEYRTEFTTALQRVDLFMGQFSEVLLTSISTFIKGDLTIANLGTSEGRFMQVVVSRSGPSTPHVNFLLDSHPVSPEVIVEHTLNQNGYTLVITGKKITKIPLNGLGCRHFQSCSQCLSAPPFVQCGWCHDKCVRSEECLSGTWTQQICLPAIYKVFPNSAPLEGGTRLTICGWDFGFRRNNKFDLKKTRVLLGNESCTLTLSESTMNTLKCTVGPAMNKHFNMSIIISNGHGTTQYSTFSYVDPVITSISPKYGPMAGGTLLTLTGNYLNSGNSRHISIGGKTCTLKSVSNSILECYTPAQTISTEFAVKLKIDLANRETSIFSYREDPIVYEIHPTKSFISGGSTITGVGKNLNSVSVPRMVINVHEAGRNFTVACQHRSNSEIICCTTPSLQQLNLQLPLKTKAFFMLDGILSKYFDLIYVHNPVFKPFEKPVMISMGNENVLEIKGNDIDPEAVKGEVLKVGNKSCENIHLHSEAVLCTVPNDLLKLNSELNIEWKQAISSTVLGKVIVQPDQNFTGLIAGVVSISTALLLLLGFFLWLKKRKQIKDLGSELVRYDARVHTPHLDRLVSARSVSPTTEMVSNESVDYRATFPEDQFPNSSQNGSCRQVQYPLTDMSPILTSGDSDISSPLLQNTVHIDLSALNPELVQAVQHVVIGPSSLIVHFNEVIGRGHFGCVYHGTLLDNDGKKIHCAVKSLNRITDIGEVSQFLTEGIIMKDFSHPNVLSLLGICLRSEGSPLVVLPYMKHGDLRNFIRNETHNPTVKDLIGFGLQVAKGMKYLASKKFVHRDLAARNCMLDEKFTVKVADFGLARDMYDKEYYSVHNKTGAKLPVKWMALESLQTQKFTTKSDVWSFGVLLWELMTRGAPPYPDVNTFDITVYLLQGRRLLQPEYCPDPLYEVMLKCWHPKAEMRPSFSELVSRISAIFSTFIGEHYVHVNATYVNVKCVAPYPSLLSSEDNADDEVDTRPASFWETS
Sequence of MARK1 (Q9P0L2 whole entry, species assumed): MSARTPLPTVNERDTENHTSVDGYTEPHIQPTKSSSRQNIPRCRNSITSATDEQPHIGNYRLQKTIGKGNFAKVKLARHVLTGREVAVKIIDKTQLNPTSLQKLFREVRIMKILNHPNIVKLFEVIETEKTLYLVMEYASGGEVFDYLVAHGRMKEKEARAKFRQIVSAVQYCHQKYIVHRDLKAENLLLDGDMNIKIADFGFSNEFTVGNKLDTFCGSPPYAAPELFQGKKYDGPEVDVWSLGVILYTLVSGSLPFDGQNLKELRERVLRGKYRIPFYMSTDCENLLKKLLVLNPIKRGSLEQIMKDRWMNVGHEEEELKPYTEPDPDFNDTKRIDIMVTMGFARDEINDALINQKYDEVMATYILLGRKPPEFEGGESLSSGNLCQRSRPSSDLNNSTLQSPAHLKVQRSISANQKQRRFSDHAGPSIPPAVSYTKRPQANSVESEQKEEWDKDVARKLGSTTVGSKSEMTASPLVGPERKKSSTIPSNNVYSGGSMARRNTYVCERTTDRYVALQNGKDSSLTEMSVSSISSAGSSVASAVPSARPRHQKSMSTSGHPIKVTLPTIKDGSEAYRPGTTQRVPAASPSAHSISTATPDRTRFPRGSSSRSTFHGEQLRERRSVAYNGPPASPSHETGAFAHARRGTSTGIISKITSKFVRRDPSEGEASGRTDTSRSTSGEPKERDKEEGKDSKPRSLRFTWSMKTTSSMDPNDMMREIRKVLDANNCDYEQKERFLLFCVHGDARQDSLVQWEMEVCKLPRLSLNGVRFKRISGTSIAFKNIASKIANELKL
Sequence of CHK1 (O14757 whole entry, species assumed): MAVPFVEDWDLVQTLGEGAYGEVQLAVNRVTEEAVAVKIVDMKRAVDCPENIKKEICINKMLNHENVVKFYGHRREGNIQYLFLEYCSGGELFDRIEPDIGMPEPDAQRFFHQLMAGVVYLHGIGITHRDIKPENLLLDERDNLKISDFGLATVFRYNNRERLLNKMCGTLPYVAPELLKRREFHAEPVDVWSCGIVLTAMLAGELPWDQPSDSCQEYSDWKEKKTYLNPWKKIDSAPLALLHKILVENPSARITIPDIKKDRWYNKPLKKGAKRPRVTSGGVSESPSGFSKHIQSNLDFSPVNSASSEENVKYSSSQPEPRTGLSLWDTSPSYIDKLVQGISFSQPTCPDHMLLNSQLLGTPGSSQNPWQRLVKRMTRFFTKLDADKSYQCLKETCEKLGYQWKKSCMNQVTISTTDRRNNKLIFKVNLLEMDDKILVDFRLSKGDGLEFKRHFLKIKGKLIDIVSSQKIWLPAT
Sequence of CSK (P41240 whole entry, species assumed): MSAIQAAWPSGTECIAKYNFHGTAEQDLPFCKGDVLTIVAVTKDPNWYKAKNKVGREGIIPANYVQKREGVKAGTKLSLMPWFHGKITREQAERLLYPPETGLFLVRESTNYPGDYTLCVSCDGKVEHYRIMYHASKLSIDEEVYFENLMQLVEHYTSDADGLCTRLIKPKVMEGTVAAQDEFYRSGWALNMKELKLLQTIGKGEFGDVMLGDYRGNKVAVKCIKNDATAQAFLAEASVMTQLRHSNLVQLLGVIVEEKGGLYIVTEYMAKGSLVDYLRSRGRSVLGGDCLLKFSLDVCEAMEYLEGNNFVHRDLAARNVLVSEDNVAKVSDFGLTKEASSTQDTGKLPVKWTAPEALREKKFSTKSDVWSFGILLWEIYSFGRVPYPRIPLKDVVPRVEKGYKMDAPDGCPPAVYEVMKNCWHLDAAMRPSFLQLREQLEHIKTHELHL
Sequence of AKT1 (P31749 whole entry, species assumed): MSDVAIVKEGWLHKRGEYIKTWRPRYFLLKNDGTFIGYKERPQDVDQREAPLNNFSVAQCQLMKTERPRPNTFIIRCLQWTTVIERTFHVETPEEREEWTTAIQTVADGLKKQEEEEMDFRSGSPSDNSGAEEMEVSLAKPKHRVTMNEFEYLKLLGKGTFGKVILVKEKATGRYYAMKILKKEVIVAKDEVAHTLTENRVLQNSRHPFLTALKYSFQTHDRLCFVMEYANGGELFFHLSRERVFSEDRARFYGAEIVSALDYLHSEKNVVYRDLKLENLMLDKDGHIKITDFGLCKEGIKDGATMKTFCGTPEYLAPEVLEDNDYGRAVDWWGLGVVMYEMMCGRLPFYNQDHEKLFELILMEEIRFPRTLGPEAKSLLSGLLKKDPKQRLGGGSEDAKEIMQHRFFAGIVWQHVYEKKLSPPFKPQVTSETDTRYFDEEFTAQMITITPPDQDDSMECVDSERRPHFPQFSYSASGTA

SMILES: Nc1ccc(-c2ccc3ncc4c(=O)[nH]c(=O)n(-c5cccc(C(F)(F)F)c5)c4c3n2)cn1 [Compound 5, 9-(6-aminopyridin-3-yl)-1-(3-(trifluoromethyl)phenyl)pyrimido[5,4-c][1,5]naphthyridine-2,4(1H,3H)-dione]
- IC50 (AKT1): > 10000 nM
- IC50 (CDK2): > 10000 nM
- IC50 (CHK1): > 10000 nM
- IC50 (CK1d): > 10000 nM
- IC50 (CKIT): > 10000 nM
- IC50 (CMET): > 10000 nM
- IC50 (CSK): > 10000 nM
- IC50 (DYRK1b): > 10000 nM
- IC50 (FGFR1): > 10000 nM
- IC50 (JAK3): > 10000 nM
- IC50 (JNK2): > 10000 nM
- IC50 (KDR): > 10000 nM
- IC50 (LYNa): 1370 nM
- IC50 (MARK1): > 10000 nM
- IC50 (P70s6k): > 10000 nM
- IC50 (PKCa): > 10000 nM
- IC50 (PKD1): 2410 nM
- IC50 (ROCK2): > 10000 nM
- IC50 (SYK): > 10000 nM
